Laboratory results from patent US20240415819A1, “MACROCYCLIC COMPOUNDS AS PROTEASOME SUBUNIT BETA TYPE-5 INHIBITORS” (Lead Discovery Center GmbH, priority 2021, published 2024).

How the values were obtained:
[1] = biological target: T1, β5 subunit of the human immunoproteasome (IPS) (Homo sapiens, UniProt P28062); assay: β5 inhibition assay, human immunoproteasome (Suc-LLVY-AMC); assay type: biochemical; settings: IC50 class, Suc-LLVY-AMC substrate
T1 construct: purchased Boston Biochem E-370
Summary of the method: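 β5 activity is read as liberated AMC fluorescence (355/460 nm) after 4 h dark reaction at RT with 22.6 μM Suc-LLVY-AMC, stopped by 1 μM bortezomib. Beforehand, 1 nM human IPS and compound sat 10 min at RT in HEPES pH 7.5 buffer containing NaCl, 0.02% SDS and DTT.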

[2] = system: MM1 S (B lymphoblast cell line); assay: 48 hr CTG viability assay, MM1S; assay type: cell-based; settings: Homo sapiens, 48 hr CTG, read-out: MM1S IC50
Summary of the method: (§1)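 Growth inhibition by compound over 48 h; IC50 (nM) derived from duplicate CellTiter-Glo luminescence readings across 0.0015–10 uM.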

[3] = system: Hs 746T (human gastric carcinoma cell line); assay: 48 hr CTG viability assay, Hs 746T; assay type: cell-based; settings: Hs746T, 48 hr CTG, read-out: Hs 746T IC50
Summary of the method: as §1

[4] = system: RPMI 8226 (B lymphocyte cell line, multiple myeloma); assay: 48 hr CTG viability assay, RPMI 8226; assay type: cell-based; settings: Homo sapiens, RPMI-8226; 48 hr CTG; read-out: RPMI-8226 IC50
Summary of the method: as §1

[5] = system: A549 (human lung carcinoma cell line); assay: Glo assay of A549 cells (Table 3; ProteasomeGlo plating scheme); assay type: cell-based; settings: Homo sapiens; A549 cells; read-out: PGLo A549
Summary of the method: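 Luminescent read-out of cellular chymotrypsin-like proteasome activity: cells exposed to compound 105 min at 37° C., 5% CO2, then given Suc-LLVY-Glo reagent, shaken 2-5 min and kept dark 10-15 min before reading. Values are IC50 [nM].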

[6] = biological target: T2, β5 subunit of the human constitutive proteasome (CPS) (Homo sapiens, UniProt P28074); assay: β5 inhibition assay, human constitutive proteasome (Suc-LLVY-AMC); assay type: biochemical; settings: IC50 class, Suc-LLVY-AMC substrate
T2 construct: purchased Boston Biochem E-360
Protocol: The enzymatic activity of the β5 subunit of the human constitutive proteasome (CPS) is analyzed. In another assay, which differs from the assay of the human constitutive proteasome only in using the human immunoproteasome (IPS) the enzymatic activity of the β5 subunit of the human immunoproteasome (IPS) is analyzed. […] Inhibition is indicated as IC50 [nM] (“-”=not measured).

| IC50 [1] | IC50 [2] | IC50 [3] | IC50 [4] | IC50 [5] | IC50 [6] | SMILES |
| --- | --- | --- | --- | --- | --- | --- |
| < 100 nM | < 100 nM | < 100 nM | < 100 nM | < 100 nM | < 100 nM | COc1cccc(CCCOCCC(=O)N[C@H]2CC(=O)N3CCCC(CCOc4ccc(C)c(c4)CNC(=O)[C@H](CCc4ccccc4)NC2=O)C3)c1 (stereo partly drawn) [Compound 607, 3-(3-(3-methoxyphenyl)propoxy)-N-((9S,12S)-5^4-methyl-8,11,14-trioxo-9-phenethyl-4-oxa-7,10-diaza-1(3,1)-piperidina-5(1,3)-benzenacyclotetradecaphane-12-yl)propanamide] |
| < 100 nM | < 100 nM | < 100 nM | < 100 nM | < 100 nM | < 100 nM | Cc1ccc2cc1CNC(=O)[C@H](CCc1ccccc1)NC(=O)[C@@H](NC(=O)CCNCC1CCC1)CC(=O)N1CCCC(CCO2)C1 (stereo partly drawn) [Compound 674, 3-((cyclobutylmethyl)amino)-N-((9S,12S)-5^4-methyl-8,11,14-trioxo-9-phenethyl-4-oxa-7,10-diaza-1(3,1)-piperidina-5(1,3)-benzenacyclotetradecaphane-12-yl)propanamide] |
| < 100 nM | < 100 nM | < 100 nM | < 100 nM | < 100 nM | < 100 nM | Cc1ccc2cc1CNC(=O)[C@H](CCc1ccccc1)NC(=O)[C@@H](NC(=O)CCNC1CC1)CC(=O)N1CCCC(CCO2)C1 (stereo partly drawn) [Compound 649, 3-(cyclopropylamino)-N-((9S,12S)-5^4-methyl-8,11,14-trioxo-9-phenethyl-4-oxa-7,10-diaza-1(3,1)-piperidina-5(1,3)-benzenacyclotetradecaphane-12-yl)propanamide] |
| < 100 nM | < 100 nM | < 100 nM | < 100 nM | < 100 nM | < 100 nM | Cc1ccc2cc1CNC(=O)[C@H](CCc1ccccc1)NC(=O)[C@@H](NC(=O)Cc1ccc3ncccc3c1)CC(=O)N1CCCC(CCO2)C1 (stereo partly drawn) [Compound 586, N-((9S,12S)-5^4-methyl-8,11,14-trioxo-9-phenethyl-4-oxa-7,10-diaza-1(3,1)-piperidina-5(1,3)-benzenacyclotetradecaphane-12-yl)-2-(quinolin-6-yl)acetamide] |
| < 100 nM | < 100 nM | < 100 nM | < 100 nM | < 100 nM | < 100 nM | COc1ccccc1OCCC(=O)N[C@H]1CC(=O)N2CCCC(CCOc3ccc(C)c(c3)CNC(=O)[C@H](CCc3ccccc3)NC1=O)C2 (stereo partly drawn) [Compound 588, 3-(2-methoxyphenoxy)-N-((9S,12S)-5^4-methyl-8,11,14-trioxo-9-phenethyl-4-oxa-7,10-diaza-1(3,1)-piperidina-5(1,3)-benzenacyclotetradecaphane-12-yl)propanamide] |
| < 100 nM | < 100 nM | < 100 nM | < 100 nM | < 100 nM | < 100 nM | Cc1ccc2cc1CNC(=O)[C@H](CCc1ccccc1)NC(=O)[C@@H](NC(=O)CCOCC1CCC1)CC(=O)N1CCCC(CCO2)C1 (stereo partly drawn) [Compound 628, 3-(cyclobutylmethoxy)-N-((9S,12S)-5^4-methyl-8,11,14-trioxo-9-phenethyl-4-oxa-7,10-diaza-1(3,1)-piperidina-5(1,3)-benzenacyclotetradecaphane-12-yl)propanamide] |

The remaining lines, values behind:

| SMILES | IC50 [1] | IC50 [2] | IC50 [3] | IC50 [4] | IC50 [5] | IC50 [6] |
| --- | --- | --- | --- | --- | --- | --- |
| Cc1ccc2cc1CNC(=O)[C@H](CCc1ccccc1)NC(=O)[C@@H](NC(=O)[C@@H](N)CC(=O)O)CC(=O)N1CCCC(CCO2)C1 (stereo partly drawn) [Compound 719, (3S)-3-amino-4-(((9S,12S)-5^4-methyl-8,11,14-trioxo-9-phenethyl-4-oxa-7,10-diaza-1(3,1)-piperidina-5(1,3)-benzenacyclotetradecaphane-12-yl)amino)-4-oxobutanoic acid] | < 100 nM | 100 to 500 nM | 500 to 1000 nM | 100 to 500 nM | < 100 nM | < 100 nM |
| Cc1ccc2cc1CNC(=O)[C@H](CCc1ccccc1)NC(=O)[C@@H](NC(=O)CCNC(=O)c1cccc(OCC(C)C)c1)CC(=O)N1CCCC(CCO2)C1 (stereo partly drawn) [Compound 651, 3-isobutoxy-N-(3-(((9S,12S)-5^4-methyl-8,11,14-trioxo-9-phenethyl-4-oxa-7,10-diaza-1(3,1)-piperidina-5(1,3)-benzenacyclotetradecaphane-12-yl)amino)-3-oxopropyl)benzamide] | < 100 nM | < 100 nM | < 100 nM | < 100 nM | < 100 nM | < 100 nM |
| Cc1ccc2cc1CNC(=O)[C@H](CCc1ccccc1)NC(=O)[C@@H](NC(=O)OC1CCCCC1)CC(=O)N1CCCC(CCO2)C1 (stereo partly drawn) [Compound 632, cyclohexyl ((9S,12S)-5^4-methyl-8,11,14-trioxo-9-phenethyl-4-oxa-7,10-diaza-1(3,1)-piperidina-5(1,3)-benzenacyclotetradecaphane-12-yl)carbamate] | < 100 nM | < 100 nM | < 100 nM | < 100 nM | < 100 nM | < 100 nM |
| Cc1ccc2cc1CNC(=O)[C@H](CCc1ccccc1)NC(=O)[C@@H](NC(=O)C(C)(C)C(F)(F)F)CC(=O)N1CCCC(CCO2)C1 (stereo partly drawn) [Compound 646, 3,3,3-trifluoro-2,2-dimethyl-N-((9S,12S)-5^4-methyl-8,11,14-trioxo-9-phenethyl-4-oxa-7,10-diaza-1(3,1)-piperidina-5(1,3)-benzenacyclotetradecaphane-12-yl)propanamide] | < 100 nM | < 100 nM | < 100 nM | < 100 nM | < 100 nM | < 100 nM |
| Cc1ccc2cc1CNC(=O)[C@H](CCc1ccccc1)NC(=O)[C@@H](NC(=O)CCNCc1ccc(OCC3CCCCC3)cc1)CC(=O)N1CCCC(CCO2)C1 (stereo partly drawn) [Compound 706, 3-((4-(cyclohexylmethoxy)benzyl)amino)-N-((9S,12S)-5^4-methyl-8,11,14-trioxo-9-phenethyl-4-oxa-7,10-diaza-1(3,1)-piperidina-5(1,3)-benzenacyclotetradecaphane-12-yl)propanamide] | < 100 nM | < 100 nM | < 100 nM | < 100 nM | < 100 nM | < 100 nM |
| Cc1ccc2cc1CNC(=O)[C@H](CCc1ccccc1)NC(=O)[C@@H](NC(=O)CCNCc1ccc(-c3ccncc3)cc1)CC(=O)N1CCCC(CCO2)C1 (stereo partly drawn) [Compound 603, N-((9S,12S)-5^4-methyl-8,11,14-trioxo-9-phenethyl-4-oxa-7,10-diaza-1(3,1)-piperidina-5(1,3)-benzenacyclotetradecaphane-12-yl)-3-((4-(pyridin-4-yl)benzyl)amino)propanamide] | < 100 nM | < 100 nM | < 100 nM | < 100 nM | < 100 nM | < 100 nM |
| Cc1ccc2cc1CNC(=O)[C@H](CCc1ccccc1)NC(=O)[C@@H](NS(=O)(=O)CC(F)(F)F)CC(=O)N1CCCC(CCO2)C1 (stereo partly drawn) [Compound 601, 2,2,2-trifluoro-N-((9S,12S)-5^4-methyl-8,11,14-trioxo-9-phenethyl-4-oxa-7,10-diaza-1(3,1)-piperidina-5(1,3)-benzenacyclotetradecaphane-12-yl)ethane-1-sulfonamide] | < 100 nM | < 100 nM | < 100 nM | < 100 nM | < 100 nM | < 100 nM |
| Cc1ccc2cc1CNC(=O)[C@H](CCc1ccccc1)NC(=O)[C@@H](NC(=O)N1CCC(O)CC1)CC(=O)N1CCCC(CCO2)C1 (stereo partly drawn) [Compound 681, 4-hydroxy-N-((9S,12S)-5^4-methyl-8,11,14-trioxo-9-phenethyl-4-oxa-7,10-diaza-1(3,1)-piperidina-5(1,3)-benzenacyclotetradecaphane-12-yl)piperidine-1-carboxamide] | < 100 nM | < 100 nM | < 100 nM | < 100 nM | < 100 nM | < 100 nM |
| Cc1ccc2cc1CNC(=O)[C@H](CCc1ccccc1)NC(=O)[C@@H](NC(=O)C13CC(O)(C1)C3)CC(=O)N1CCCC(CCO2)C1 (stereo partly drawn) [Compound 655, 3-hydroxy-N-((9S,12S)-5^4-methyl-8,11,14-trioxo-9-phenethyl-4-oxa-7,10-diaza-1(3,1)-piperidina-5(1,3)-benzenacyclotetradecaphane-12-yl)bicyclo[1.1.1]pentane-1-carboxamide] | < 100 nM | < 100 nM | < 100 nM | < 100 nM | < 100 nM | < 100 nM |
| Cc1ccc2cc1CNC(=O)[C@H](CCc1ccccc1)NC(=O)[C@@H](NC(=O)Cc1ccccc1)CCNC(=O)N1CCCC(CCO2)C1 (stereo partly drawn) [Compound 653, N-((9S,12S)-5^4-methyl-8,11,16-trioxo-9-phenethyl-4-oxa-7,10,15-triaza-1(3,1)-piperidina-5(1,3)-benzenacyclohexadecaphane-12-yl)-2-phenylacetamide] | < 100 nM | < 100 nM | < 100 nM | < 100 nM | < 100 nM | < 100 nM |
